According to US11161856B2 (H. Lundbeck A/S, priority 2017, dated 2021):

How the values were obtained:
Type in all cases: biochemical
MAGL = biological target: T1, MAGL (Homo sapiens, UniProt Q99685); assay: In vitro competitive activity-based protein profiling (FP-Rh or HT-01 probe, gel-based); parameters: IC50 MGLL PC3 (Human, μM) / IC50 MGLL PFC (Human, μM): scale not given here; details: for % Inh MGLL PC3 (Human, μM) / % Inh MGLL PFC (Human, μM): concentration not given (μM); for % Inh MGLL PFC (Human, μM) / IC50 MGLL PFC (Human, μM): prefrontal cortex (PFC) proteome
T1 construct: Proteomes (human prefrontal cortex or cell membrane fractions); from tissue
T1 sequence (Q99685 1-303): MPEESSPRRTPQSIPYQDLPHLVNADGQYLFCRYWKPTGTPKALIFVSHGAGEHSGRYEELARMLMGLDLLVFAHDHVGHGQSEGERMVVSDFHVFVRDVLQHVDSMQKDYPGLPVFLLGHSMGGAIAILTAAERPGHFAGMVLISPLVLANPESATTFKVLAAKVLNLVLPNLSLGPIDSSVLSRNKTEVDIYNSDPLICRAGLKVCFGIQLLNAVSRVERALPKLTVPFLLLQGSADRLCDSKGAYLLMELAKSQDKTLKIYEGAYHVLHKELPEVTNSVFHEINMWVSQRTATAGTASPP
Summary of the method: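 Human prefrontal cortex or cell membrane proteomes (1.0 mg/mL total protein) were preincubated with varying inhibitor concentrations for 30 min at 37° C. FP-Rh or HT-01 probe (50 μM DMSO stock) was then added for 30 min at room temperature, and samples were quenched in SDS loading buffer and resolved by SDS-PAGE.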

MGLL = biological target: T2, MGLL (Mus musculus, UniProt O35678); assay: In vitro competitive activity-based protein profiling, mouse brain proteome (MGLL); parameters: IC50 MGLL Brain (Mouse, μM): scale not given here; details: for % Inh MGLL Brain (Mouse, μM): concentration not given (μM)
T2 construct: Brain; from tissue; host or cells: mouse brain proteome
T2 sequence (O35678 1-303): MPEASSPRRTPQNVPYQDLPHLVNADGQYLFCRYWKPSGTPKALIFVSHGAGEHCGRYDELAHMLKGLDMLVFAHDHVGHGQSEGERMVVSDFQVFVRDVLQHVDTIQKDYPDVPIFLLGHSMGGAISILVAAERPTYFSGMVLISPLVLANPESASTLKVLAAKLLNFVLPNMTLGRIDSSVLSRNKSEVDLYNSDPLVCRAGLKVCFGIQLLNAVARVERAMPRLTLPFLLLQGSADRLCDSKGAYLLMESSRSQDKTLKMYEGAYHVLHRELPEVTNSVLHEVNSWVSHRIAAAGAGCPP

ABHD6 = biological target: T3, ABHD6 (Mus musculus, UniProt Q8R2Y0); assay: In vitro competitive activity-based protein profiling, mouse brain proteome (ABHD6); details: mouse brain proteome; concentration not given (μM)
T3 construct: Brain; from tissue; host or cells: mouse brain proteome
T3 sequence (Q8R2Y0 1-336): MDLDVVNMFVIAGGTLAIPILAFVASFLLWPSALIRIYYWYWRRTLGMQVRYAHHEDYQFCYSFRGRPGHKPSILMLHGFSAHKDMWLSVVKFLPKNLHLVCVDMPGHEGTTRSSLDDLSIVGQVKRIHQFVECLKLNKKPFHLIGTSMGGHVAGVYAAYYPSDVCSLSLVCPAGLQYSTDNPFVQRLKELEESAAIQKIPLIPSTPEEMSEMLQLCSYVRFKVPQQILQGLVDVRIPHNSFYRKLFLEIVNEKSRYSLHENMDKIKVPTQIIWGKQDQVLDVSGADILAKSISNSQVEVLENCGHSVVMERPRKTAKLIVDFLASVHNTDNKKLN
Experimental: [The source words this procedure for another target and reports this target under the same test.] In Vitro Competitive Activity-Based Protein Profiling.
Proteomes (human prefrontal cortex or cell membrane fractions) (50 μL, 1.0 mg/mL total protein concentration) were preincubated with varying concentrations of inhibitors at 37° C. After 30 min, FP-Rh or HT-01 (1.0 μL, 50 μM in DMSO) was added and the mixture was incubated for another 30 min at room temperature. Reactions were quenched with SDS loading buffer (15 μL-4×) and run on SDS-PAGE.

## O=C(OC(C(F)(F)F)C(F)(F)F)N1CCC2(CCCN2Cc2cc(Cl)cc(C3(C(=O)O)CCCC3)c2)CC1 [Example 134, l-{3-Chloro-5-[(8-{[(1,1,1,3,3,3-hexafluoropropan-2-yl)oxy]carbonyl}-1,8-diazaspiro[4.5]decan-1-yl)methyl]phenyl}cyclopentane-1-carboxylic acid]
MAGL; PC3 cell proteome
  % Inh MGLL PC3 (Human, μM): ### (### is ≥75%)
MGLL
  % Inh MGLL Brain (Mouse, μM): ### (### is ≥75%)
ABHD6
  % Inh ABHD6 Brain (Mouse, μM): # (# is ≤25%)

## O=C(O)C1CCN(c2c(Cl)cccc2CN2CCC3(CC2)CCN(C(=O)OC(C(F)(F)F)C(F)(F)F)C3)CC1 [Example 218, l-(2-Chloro-6-{(2-(((1,1,1,3,3,3-hexafluoropropan-2-yl)oxy)carbonyl)-2,8-diazaspiro[4.5]decan-8-yl)methyl)phenyl)piperidine-4-carboxylic acid]
MAGL
  % Inh MGLL PFC (Human, μM): ### (### is ≥75%)
MGLL
  % Inh MGLL Brain (Mouse, μM): ### (### is ≥75%)
ABHD6
  % Inh ABHD6 Brain (Mouse, μM): # (# is ≤25%)

## O=C(O)CN1CC2CC1CN2c1cc(C(F)(F)F)ccc1CN1CCCC12CCN(C(=O)OC(C(F)(F)F)C(F)(F)F)CC2 (centres unmarked) [Example 126, 2-(5-{2-[(8-{[(1,1,1,3,3,3-Hexafluoropropan-2-yl)oxy]carbonyl}-1,8-diazaspiro[4.5]decan-1-yl)methyl]-5-(trifluoromethyl)phenyl}-2,5-diazabicyclo[2.2.1]heptan-2-yl)acetic acid]
MAGL
  % Inh MGLL PFC (Human, μM): ### (### is ≥75%)
MGLL
  % Inh MGLL Brain (Mouse, μM): ### (### is ≥75%)
ABHD6
  % Inh ABHD6 Brain (Mouse, μM): # (# is ≤25%)

## CC1(OCc2ccc(Cl)cc2C2(C(=O)O)CCCC2)CCN(C(=O)OC(C(F)(F)F)C(F)(F)F)CC1 [Example 146, 1-(5-Chloro-2-{[(1-{[(1,1,1,3,3,3-hexafluoropropan-2-yl)oxy]carbonyl}-4-methylpiperidin-4-yl)oxy]methyl}phenyl) cyclopentane-1-carboxylic acid]
MAGL; PC3 cell proteome
  % Inh MGLL PC3 (Human, μM): ### (### is ≥75%)
MGLL
  % Inh MGLL Brain (Mouse, μM): ### (### is ≥75%)
ABHD6
  % Inh ABHD6 Brain (Mouse, μM): ## (## is between 25 and 75%)

## CC1(C(=O)O)CN(c2cc(CN3CC4(CCN(C(=O)OC(C(F)(F)F)C(F)(F)F)CC4)C3)cc(C(F)(F)F)c2)CCO1 (centres unmarked) [Example 22, 4-(3-((7-(((1,1,1,3,3,3-Hexafluoropropan-2-yl)oxy)carbonyl)-2,7-diazaspiro[3.5]nonan-2-yl)methyl)-5-(trifluoromethyl)phenyl)-2-methylmorpholine-2-carboxylic acid]
MAGL; PC3 cell proteome
  IC50 MGLL PC3 (Human, μM): * * *
MAGL
  % Inh MGLL PFC (Human, μM): ### (### is ≥75%)
MGLL
  % Inh MGLL Brain (Mouse, μM): ### (### is ≥75%)
ABHD6
  % Inh ABHD6 Brain (Mouse, μM): ### (### is ≥75%)

## CN(Cc1cccc(Cl)c1C1(C(=O)O)CCCC1)C1(C)CCN(C(=O)OC(C(F)(F)F)C(F)(F)F)CC1 [Example 9, 1-(2-Chloro-6-(((1-(((1,1,1,3,3,3-hexafluoropropan-2-yl)oxy)carbonyl)-4-methylpiperidin-4-yl)(methyl)amino)methyl)phenyl)cyclopentane-1-carboxylic acid]
MAGL; PC3 cell proteome
  IC50 MGLL PC3 (Human, μM): * * *
  % Inh MGLL PC3 (Human, μM): ### (### is ≥75%)
MGLL
  % Inh MGLL Brain (Mouse, μM): ### (### is ≥75%)
ABHD6
  % Inh ABHD6 Brain (Mouse, μM): # (# is ≤25%)

## O=C(O)C1CCN(Cc2cc(CN3CCC4(CC3)CCN(C(=O)OC(C(F)(F)F)C(F)(F)F)C4)cc(C(F)(F)F)c2)CC1 [Example 223, l-(3-((2-(((1,1,1,3,3,3-Hexafluoropropan-2-yl)oxy)carbonyl)-2,8-diazaspiro[4.5]decan-8-yl)methyl)-5-(trifluoromethyl)benzyl) piperidine-4-carboxylic acid]
MAGL
  % Inh MGLL PFC (Human, μM): ## (## is between 25 and 75%)
MGLL
  % Inh MGLL Brain (Mouse, μM): # (# is ≤25%)
ABHD6
  % Inh ABHD6 Brain (Mouse, μM): # (# is ≤25%)

## O=C(O)C1CN(c2cc(C(F)(F)F)ccc2CN2CC3(CCN(C(=O)OC(C(F)(F)F)C(F)(F)F)CC3)C2)CCO1 (centres unmarked) [Example 20, 4-(2-((7-(((1,1,1,3,3,3-Hexafluoropropan-2-yl)oxy)carbonyl)-2,7-diazaspiro[3.5]nonan-2-yl)methyl)-5-(trifluoromethyl)phenyl)morpholine-2-carboxylic acid]
MAGL; PC3 cell proteome
  IC50 MGLL PC3 (Human, μM): * * *
MAGL
  IC50 MGLL PFC (Human, μM): * * *
  % Inh MGLL PFC (Human, μM): ### (### is ≥75%)
MGLL
  IC50 MGLL Brain (Mouse, μM): * * *
  % Inh MGLL Brain (Mouse, μM): ### (### is ≥75%)
ABHD6
  % Inh ABHD6 Brain (Mouse, μM): ## (## is between 25 and 75%)

## CN(Cc1ccc(C(F)(F)F)cc1N1CCC(N2CCC[C@H]2C(=O)O)CC1)C1(C)CCN(C(=O)OC(C(F)(F)F)C(F)(F)F)CC1 [Example 163, (1-(2-(((1-(((1,1,1,3,3,3-Hexafluoropropan-2-yl)oxy)carbonyl)-4-methylpiperidin-4-yl)(methyl)amino)methyl)-5-(trifluoromethyl)phenyl)piperidin-4-yl)-L-proline]
MAGL; PC3 cell proteome
  % Inh MGLL PC3 (Human, μM): ### (### is ≥75%)
MAGL; PC3 cell proteome, read-out: IC50 MGLL PC3 (Human)
  IC50: < 100 nM
MGLL
  % Inh MGLL Brain (Mouse, μM): ### (### is ≥75%)
ABHD6
  % Inh ABHD6 Brain (Mouse, μM): # (# is ≤25%)

## O=C(OC(C(F)(F)F)C(F)(F)F)N1CCC2(CC1)CCN(C(=O)c1ccc(C(F)(F)F)cc1Cl)C2 [Example 119, 1,1,1,3,3,3-Hexafluoropropan-2-yl 2-(2-chloro-4-(trifluoromethyl)benzoyl)-2,8-diazaspiro[4.5]decane-8-carboxylate]
MAGL
  % Inh MGLL PFC (Human, μM): ### (### is ≥75%)
MGLL
  % Inh MGLL Brain (Mouse, μM): ### (### is ≥75%)
ABHD6
  % Inh ABHD6 Brain (Mouse, μM): ### (### is ≥75%)

## CN(Cc1ccc(C(F)(F)F)cc1N1CC2CC1CN2CC(=O)O)C1(C)CCN(C(=O)OC(C(F)(F)F)C(F)(F)F)CC1 (centres unmarked) [Example 27, 2-(5-(2-(((1-(((1,1,1,3,3,3-Hexafluoropropan-2-yl)oxy)carbonyl)-4-methylpiperidin-4-yl)(methyl)amino)methyl)-5-(trifluoromethyl)phenyl)-2,5-diazabicyclo[2.2.1]heptan-2-yl)acetic acid]
MAGL; PC3 cell proteome
  IC50 MGLL PC3 (Human, μM): * * *
  % Inh MGLL PC3 (Human, μM): ### (### is ≥75%)
MAGL
  IC50 MGLL PFC (Human, μM): * * *
MGLL
  % Inh MGLL Brain (Mouse, μM): ### (### is ≥75%)
ABHD6
  % Inh ABHD6 Brain (Mouse, μM): ### (### is ≥75%)

## O=C(O)C1CCN(c2ccc(CN3CCC4(CC3)CCN(C(=O)OC(C(F)(F)F)C(F)(F)F)C4)cc2C(F)(F)F)CC1 [Example 219, l-(4-((2-(((1,1,1,3,3,3-Hexafluoropropan-2-yl)oxy)carbonyl)-2,8-diazaspiro[4.5]decan-8-yl)methyl)-2-(trifluoromethyl)phenyl) piperidine-4-carboxylic acid]
MAGL
  % Inh MGLL PFC (Human, μM): ### (### is ≥75%)
MGLL
  % Inh MGLL Brain (Mouse, μM): ## (## is between 25 and 75%)
ABHD6
  % Inh ABHD6 Brain (Mouse, μM): ### (### is ≥75%)

## O=C(O)CN1CCC2(CC1)CN(c1cc(C(F)(F)F)ccc1CN1CCCC13CCN(C(=O)OC(C(F)(F)F)C(F)(F)F)CC3)C2 [Example 156, 2-(2-(2-((8-(((1,1,1,3,3,3-Hexafluoropropan-2-yl)oxy)carbonyl)-1,8-diazaspiro[4.5]decan-1-yl)methyl)-5-(trifluoromethyl)phenyl)-2,7-diazaspiro[3.5]nonan-7-yl)acetic acid]
MAGL
  % Inh MGLL PFC (Human, μM): ### (### is ≥75%)
MGLL
  % Inh MGLL Brain (Mouse, μM): ### (### is ≥75%)
ABHD6
  % Inh ABHD6 Brain (Mouse, μM): # (# is ≤25%)
